This test relates to CD2F1 mice, L1210 leukemia ip, survival T/C. Put plainly: NCI In Vivo Anticancer Drug Screen. Data for tumor model L1210 Leukemia (intraperitoneal) in CD2F1 (CDF1) mice. The conditions noted are these: higher = longer survival. The method in brief:
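Tumor-bearing mice (transplanted tumor) were split into treated and vehicle control groups, and the measured endpoint of each treated group was divided by that of its vehicle controls.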

Where [1] appears, read: endpoint: mean survival time, dose: 50.0 mg/kg/injection, schedule: Q01DX009 (ip), vehicle: saline with Tween-80.
[2] abbreviates: endpoint: mean survival time, dose: 100.0 mg/kg/injection, schedule: Q01DX009 (ip), vehicle: saline with Tween-80.
[3] abbreviates: endpoint: mean survival time, dose: 200.0 mg/kg/injection, schedule: Q01DX009 (ip), vehicle: saline with Tween-80.
Where [4] appears, read: endpoint: mean survival time, dose: 400.0 mg/kg/injection, schedule: Q01DX009 (ip), vehicle: saline with Tween-80.
The mark [5] stands for this setting: endpoint: mean survival time, dose: 100.0 mg/kg/injection, schedule: Q01DX001 (ip), vehicle: saline with Tween-80.
Where [6] appears, read: endpoint: mean survival time, dose: 200.0 mg/kg/injection, schedule: Q01DX001 (ip), vehicle: saline with Tween-80.
Setting [7] is: endpoint: mean survival time, dose: 100.0 mg/kg/injection, schedule: Q04DX003 (ip), vehicle: saline.
The mark [8] stands for this setting: endpoint: mean survival time, dose: 400.0 mg/kg/injection, schedule: Q01DX001 (ip), vehicle: saline with Tween-80.
Where [9] appears, read: endpoint: mean survival time, dose: 100.0 mg/kg/injection, schedule: Q04DX003 (ip), vehicle: saline with Tween-80.
The mark [10] stands for this setting: endpoint: mean survival time, dose: 200.0 mg/kg/injection, schedule: Q04DX003 (ip), vehicle: saline with Tween-80.
Setting [11] is: endpoint: mean survival time, dose: 400.0 mg/kg/injection, schedule: Q04DX003 (ip), vehicle: saline with Tween-80.

Values joined by “and” are separate entries in the source; they are usually repeats but may differ in a detail not shown here. Equal entries are not always repeated. Inconclusive results and toxic doses are left out.

In the case of `O=NN(CCCCCSCCCl)C(=O)NC1CCCCC1`, the T/C (endpoint: mean survival time, dose: 6.25 mg/kg/injection, schedule: Q01DX001 (ip), vehicle: distilled water + Tween-80) was 101 % of control; the T/C (endpoint: mean survival time, dose: 12.5 mg/kg/injection, schedule: Q01DX001 (ip), vehicle: distilled water + Tween-80) was 101 % of control; the T/C (endpoint: mean survival time, dose: 25.0 mg/kg/injection, schedule: Q01DX001 (ip), vehicle: distilled water + Tween-80) is 107 % of control; the T/C (endpoint: mean survival time, dose: 50.0 mg/kg/injection, schedule: Q01DX001 (ip), vehicle: distilled water + Tween-80) was 104 % of control; the T/C (endpoint: mean survival time, dose: 100.0 mg/kg/injection, schedule: Q01DX001 (ip), vehicle: distilled water + Tween-80) is 104 % of control; the T/C (endpoint: mean survival time, dose: 200.0 mg/kg/injection, schedule: Q01DX001 (ip), vehicle: distilled water + Tween-80) was 108 % of control. Moreover, the T/C (endpoint: mean survival time, dose: 400.0 mg/kg/injection, schedule: Q01DX001 (ip), vehicle: distilled water + Tween-80) was 118 % of control.

With `Cc1ccc(CCl)cc1`, the T/C is, setting by setting: under setting [1], 115 % of control; under setting [2], 92 % of control.

Turning to `CCOC(=O)CC(=O)c1ccccc1SC`, the T/C was 98 % of control under setting [2], 96 % of control under setting [3] and 96 % of control under setting [4].

Turning to `CC(=O)OC1CCC2(C)C(CCC3C4CC=C(C(C)=O)C4(C)CCC32)C1` (stereo not given), the T/C under setting [2] is 92 % of control, the T/C under setting [3] was 92 % of control and the T/C under setting [4] is 89 % of control.

For the compound `CC(=O)Nc1ccc(SCCCc2c(N)nc(N)nc2N)cc1`, the T/C runs as follows: under setting [5], 100 % of control; under setting [6], 100 % of control.

For `CC(N)(CO)C(=O)O` (stereo not given), the T/C reads like this: under setting [7], 108 % of control; (endpoint: mean survival time, dose: 200.0 mg/kg/injection, schedule: Q04DX003 (ip), vehicle: saline) 113 % of control; (endpoint: mean survival time, dose: 400.0 mg/kg/injection, schedule: Q04DX003 (ip), vehicle: saline) 103 % of control.

For the compound `O=C(O)/C=N/NS(=O)(=O)c1ccccc1`, the T/C reads like this: (endpoint: mean survival time, dose: 12.5 mg/kg/injection, schedule: Q01DX009 (ip), vehicle: water) 99 % of control; (endpoint: mean survival time, dose: 25.0 mg/kg/injection, schedule: Q01DX009 (ip), vehicle: water) 103 % of control; (endpoint: mean survival time, dose: 50.0 mg/kg/injection, schedule: Q01DX009 (ip), vehicle: water) 113 % of control; (endpoint: mean survival time, dose: 100.0 mg/kg/injection, schedule: Q01DX009 (ip), vehicle: water) 114 % of control.

Regarding `C(/C=C\c1ccccc1)=C(/C=C/c1ccccc1)/C=C/c1ccccc1`, the T/C is 89 % of control under setting [6] and 89 % of control under setting [8].

Consider `S=C(S)c1[nH]c(=S)[nH]c(=S)c1Cl`, for which the T/C reads like this: under setting [9], 96 % of control; under setting [10], 101 % of control; under setting [11], 87 % of control.

`[Cl][Pt+2][Cl].[NH-]c1cccc(F)c1.[NH-]c1cccc(F)c1`: the T/C (endpoint: mean survival time, dose: 12.5 mg/kg/injection, schedule: Q04DX003 (ip), vehicle: saline with Tween-80) was 97 % of control; the T/C (endpoint: mean survival time, dose: 25.0 mg/kg/injection, schedule: Q04DX003 (ip), vehicle: saline with Tween-80) was 114 % of control; the T/C (endpoint: mean survival time, dose: 50.0 mg/kg/injection, schedule: Q04DX003 (ip), vehicle: saline with Tween-80) is 102 % of control.

Regarding `O=[N+]([O-])c1cc(CCl)ccc1CCl`, the T/C reads like this: (endpoint: mean survival time, dose: 75.0 mg/kg/injection, schedule: Q01DX001 (ip), vehicle: other) 96 % of control; (endpoint: mean survival time, dose: 150.0 mg/kg/injection, schedule: Q01DX001 (ip), vehicle: other) 96 % of control.

For `O=c1c2ccccc2c2nccc3c4ccccc4n1c32`, the T/C is, setting by setting: under setting [2], 103 % of control; under setting [9], 102 % of control; under setting [3], 105 % of control; under setting [10], 107 % of control; under setting [4], 100 % of control; under setting [11], 107 % of control.

In the case of `CCCCCCCCC(=O)c1ccc(N=Nc2ccc(OCC)cc2)cc1`, the T/C under setting [9] is 94 % of control, the T/C under setting [10] is 91 % of control and the T/C under setting [11] was 89 % of control.

Regarding `COC1OC(CO)C(O)C(NC(=O)N(C)N=O)C1O` (stereo not given), the T/C runs as follows: (endpoint: mean survival time, dose: 12.5 mg/kg/injection, schedule: Q01DX009 (ip), vehicle: saline) 111 % of control; (endpoint: mean survival time, dose: 25.0 mg/kg/injection, schedule: Q01DX009 (ip), vehicle: saline) 114 % of control; (endpoint: mean survival time, dose: 100.0 mg/kg/injection, schedule: Q01DX009 (ip), vehicle: saline) 151 % of control; (endpoint: mean survival time, dose: 200.0 mg/kg/injection, schedule: Q01DX009 (ip), vehicle: saline) 157 % of control and 197 % of control; (endpoint: mean survival time, dose: 400.0 mg/kg/injection, schedule: Q01DX009 (ip), vehicle: saline) 95 % of control; (endpoint: median survival time, dose: 25.0 mg/kg/injection, schedule: Q01DX009 (ip), vehicle: saline) 121 % of control. The T/C is 159 % of control and 160 % of control (endpoint: median survival time, dose: 100.0 mg/kg/injection, schedule: Q01DX009 (ip), vehicle: saline); 158 % of control (endpoint: median survival time, dose: 144.0 mg/kg/injection, schedule: Q01DX005 (ip), vehicle: saline); 172 % of control and 209 % of control (endpoint: median survival time, dose: 200.0 mg/kg/injection, schedule: Q01DX009 (ip), vehicle: saline); 170 % of control and 172 % of control (endpoint: median survival time, dose: 240.0 mg/kg/injection, schedule: Q01DX005 (ip), vehicle: saline); 175 % of control and 225 % of control (endpoint: median survival time, dose: 400.0 mg/kg/injection, schedule: Q01DX005 (ip), vehicle: saline); 222 % of control and 236 % of control (endpoint: median survival time, dose: 400.0 mg/kg/injection, schedule: Q01DX009 (ip), vehicle: saline). Further, the T/C was 233 % of control (endpoint: median survival time, dose: 666.66 mg/kg/injection, schedule: Q01DX005 (ip), vehicle: saline) and 92 % of control (endpoint: median survival time, dose: 1111.11 mg/kg/injection, schedule: Q01DX005 (ip), vehicle: saline).

Consider `CC(C)(C)C1=Nc2ccccc2[Si]1(C)C`, for which the T/C by setting is: under setting [5], 98 % of control; under setting [6], 102 % of control; under setting [8], 95 % of control.

With `C/C(=C/C(C)(C)C)C1CCCCC1C` (stereo not given), the T/C runs as follows: under setting [1], 100 % of control; under setting [2], 100 % of control; under setting [3], 116 % of control.

`CCC1=[N+](C)c2ccccc2C1(C)C`: the T/C under setting [7] is 104 % of control.

As for `O=C(CBr)c1cc2ncccc2c2ccccc12`, under “endpoint: mean survival time, dose: 100.0 mg/kg/injection, schedule: Q01DX009 (ip), vehicle: other”, the T/C was 101 % of control.

On to `C/C=C/C[P+](Cc1ccccc1)(c1ccccc1)c1ccccc1`, for which the T/C by setting is: (endpoint: mean survival time, dose: 0.39 mg/kg/injection, schedule: Q01DX009 (ip), vehicle: saline) 97 % of control; (endpoint: mean survival time, dose: 0.78 mg/kg/injection, schedule: Q01DX009 (ip), vehicle: saline) 96 % of control; (endpoint: mean survival time, dose: 1.56 mg/kg/injection, schedule: Q01DX009 (ip), vehicle: saline) 102 % of control; (endpoint: mean survival time, dose: 3.13 mg/kg/injection, schedule: Q01DX009 (ip), vehicle: saline) 103 % of control.

`CCOC(=O)N1CCc2nc3ccccc3cc21`: the T/C (endpoint: mean survival time, dose: 50.0 mg/kg/injection, schedule: Q01DX001 (ip), vehicle: other) was 106 % of control; the T/C (endpoint: mean survival time, dose: 100.0 mg/kg/injection, schedule: Q01DX001 (ip), vehicle: other) was 109 % of control; the T/C (endpoint: mean survival time, dose: 200.0 mg/kg/injection, schedule: Q01DX001 (ip), vehicle: other) is 97 % of control.

Turning to `NS(=O)(=O)c1ccc(NC(=O)Oc2ccc([N+](=O)[O-])cc2)cc1`, the T/C is 93 % of control under setting [5], 93 % of control under setting [6] and 101 % of control under setting [8].

For `CNC(=O)Nc1nccs1`, the T/C is, setting by setting: under setting [1], 105 % of control; under setting [2], 106 % of control; under setting [3], 97 % of control.

`C=C1CC(C)(Cn2c(N)nc3nc[nH]c3c2=O)OC1=O` (stereo not given): the T/C is 97 % of control (endpoint: median survival time, dose: 5.38 mg/kg/injection, schedule: Q01DX005 (ip), vehicle: water); 97 % of control (endpoint: median survival time, dose: 10.75 mg/kg/injection, schedule: Q01DX005 (ip), vehicle: water); 97 % of control (endpoint: median survival time, dose: 21.5 mg/kg/injection, schedule: Q01DX005 (ip), vehicle: water); 112 % of control (endpoint: median survival time, dose: 43.0 mg/kg/injection, schedule: Q01DX005 (ip), vehicle: water).

`Cc1c(C)c2c(c(C)c1OC(=O)CCC(=O)O)CCC(C)(CCCC(C)CCCC(C)CCCC(C)C)O2` (stereo not given): the T/C is 102 % of control under setting [9], 98 % of control under setting [10] and 94 % of control under setting [11].

Take `CC1=C/C(=N/NC(N)=O)CC(C)C1` (stereo not given): the T/C by setting is: under setting [2], 91 % of control; under setting [3], 97 % of control; under setting [4], 98 % of control.

Turning to `Cc1c(C)c(C)c(CCl)c(C)c1C`, the T/C is 103 % of control under setting [1] and 103 % of control under setting [2].

(Values after PubChem BioAssay AID256 (DTP/NCI, 2004).)
